Laboratory results as given in patent US6355799B1, “Substituted benzene compounds, process for their preparation, and herbicidal and defoliant compositions containing them” (ISK Americas Incorporated, priority 1997, dated 2002).

How the values were obtained:
Type in all cases: in vivo
[1] = tested on: redroot pigweed (Amaranthus retroflexus, AMARE); experiment: Pre-emerge test, greenhouse herbicide activity screening; conditions: rating scale 0-100, 14 days after application
Outline: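 Rating: 0–100 visual injury, 14 DAA. Application: acetone, 187 l/ha, 15–1000 g ai/ha, flat-fan track sprayer with nozzle 40–45 cm above soil or canopy. Post-emerge runs used 0.25% v/v surfactant on 2–3 leaf plants.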

[2] = tested on: ivyleaf morningglory (Ipomoea hederacea, IPOHE); experiment: as above; conditions: rating scale 0-100, 14 days after application
Outline: (§1)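 Visual ratings on a 0-100 scale (0 no damage, 100 all plants dead) were taken at 14 days after treatment. Rates of 15-1000 g ai/ha in acetone, 187 l/ha, were sprayed onto soil one day after planting (pre-emerge) or onto 2-3 leaf plants with 0.25% v/v surfactant (post-emerge).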

[3] = tested on: johnsongrass (Sorghum halepense, SORHA); experiment: as above; conditions: rating scale 0-100, 14 days after application
Outline: as §1

[4] = tested on: lambsquarters (Chenopodium album, CHEAL); experiment: as above; conditions: rating scale 0-100, 14 days after application
Outline: as §1

[5] = tested on: sicklepod (Cassia obtusifolia, CASOB); experiment: as above; conditions: rating scale 0-100, 14 days after application
Outline: as §1

[6] = tested on: barnyardgrass (Echinochloa crus-galli, ECHCG); experiment: as above; conditions: rating scale 0-100, 14 days after application
Outline: as §1

[7] = tested on: velvetleaf (Abutilon theophrasti, ABUTH); experiment: as above; conditions: rating scale 0-100, 14 days after application
Outline: as §1

[8] = tested on: green foxtail (Setaria viridis, SETVI); experiment: as above; conditions: rating scale 0-100, 14 days after application
Outline: as §1

[9] = tested on: large crabgrass (Digitaria sanguinalis, DIGSA); experiment: as above; conditions: rating scale 0-100, 14 days after application
Outline: as §1

[10] = tested on: field corn (Zea mays L., var. Dekalb 535, CORN); experiment: Post-emerge test, crop safety; conditions: rating scale 0-100 (0 no damage, 100 complete death), 14 days after application
Outline: as §1

[11] = tested on: upland rice (Oryza sp., var. Tebonnet, RICE); experiment: Post-emerge test, crop safety; conditions: rating scale 0-100 (0 no damage, 100 complete death), 14 days after application
Outline: as §1

[12] = tested on: field corn (Zea mays L., var. Dekalb 535, CORN); experiment: Pre-emerge test, crop safety; conditions: rating scale 0-100, 14 days after application
Outline: (§2)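 Herbicidal damage is scored 0 (none) to 100 (complete plant death) two weeks after a simulated field spray. Rates span 15–1000 g ai/ha, delivered in acetone at 187 l/ha. For post-emergence treatments, plants have 2–3 leaves and the spray carries 0.25% v/v non-ionic surfactant.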

[13] = tested on: upland rice (Oryza sp., var. Tebonnet, RICE); experiment: Pre-emerge test, crop safety; conditions: rating scale 0-100, 14 days after application
Outline: as §2

[14] = tested on: redroot pigweed (Amaranthus retroflexus, AMARE); experiment: Post-emerge test, greenhouse herbicide activity screening; conditions: rating scale 0-100 (0 no damage, 100 complete death), 14 days after application
Outline: (§3)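 Fourteen days after spraying, crop and weed injury was graded visually from 0, no effect, to 100, every plant dead. Test substances were dissolved in acetone and applied at 15–1000 g ai/ha with a flat-fan nozzle. Application was either pre-emergence, one day after sowing, or post-emergence at the 2–3 leaf stage.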

[15] = tested on: ivyleaf morningglory (Ipomoea hederacea, IPOHE); experiment: as above; conditions: rating scale 0-100 (0 no damage, 100 complete death), 14 days after application
Outline: as §3

[16] = tested on: johnsongrass (Sorghum halepense, SORHA); experiment: as above; conditions: rating scale 0-100 (0 no damage, 100 complete death), 14 days after application
Outline: as §3

[17] = tested on: lambsquarters (Chenopodium album, CHEAL); experiment: as above; conditions: rating scale 0-100 (0 no damage, 100 complete death), 14 days after application
Outline: as §3

[18] = tested on: common ragweed (Ambrosia artemisizfolia L., AMBEL); experiment: as above; conditions: rating scale 0-100 (0 no damage, 100 complete death), 14 days after application
Outline: as §3

[19] = tested on: sicklepod (Cassia obtusifolia, CASOB); experiment: as above; conditions: rating scale 0-100 (0 no damage, 100 complete death), 14 days after application
Outline: as §3

[20] = tested on: barnyardgrass (Echinochloa crus-galli, ECHCG); experiment: as above; conditions: rating scale 0-100 (0 no damage, 100 complete death), 14 days after application
Outline: as §3

[21] = tested on: velvetleaf (Abutilon theophrasti, ABUTH); experiment: as above; conditions: rating scale 0-100 (0 no damage, 100 complete death), 14 days after application
Outline: as §3

[22] = tested on: green foxtail (Setaria viridis, SETVI); experiment: as above; conditions: rating scale 0-100 (0 no damage, 100 complete death), 14 days after application
Outline: as §3

[23] = tested on: large crabgrass (Digitaria sanguinalis, DIGSA); experiment: as above; conditions: rating scale 0-100 (0 no damage, 100 complete death), 14 days after application
Outline: as §3

COc1c(Cl)cc(F)c(-n2c(=O)cc(C(F)(F)F)n(C)c2=O)c1CC(Cl)C(=O)OCC(F)(F)C(F)(F)C(F)(F)F (single isomer, unassigned) [14-24]
Pre-emerge herbicidal activity, phytotoxicity rating AMARE ([1]; 63 g ai/ha): 50
Pre-emerge herbicidal activity, phytotoxicity rating AMARE ([1]; 250 g ai/ha): 100
Pre-emerge herbicidal activity, phytotoxicity rating IPOHE ([2]; 63 g ai/ha): 0
Pre-emerge herbicidal activity, phytotoxicity rating IPOHE ([2]; 250 g ai/ha): 0
Pre-emerge herbicidal activity, phytotoxicity rating SORHA ([3]; 63 g ai/ha): 0
Pre-emerge herbicidal activity, phytotoxicity rating SORHA ([3]; 250 g ai/ha): 0
Pre-emerge herbicidal activity, phytotoxicity rating CHEAL ([4]; 63 g ai/ha): 0
Pre-emerge herbicidal activity, phytotoxicity rating CHEAL ([4]; 250 g ai/ha): 50
Pre-emerge herbicidal activity, phytotoxicity rating CASOB ([5]; 63 g ai/ha): 0
Pre-emerge herbicidal activity, phytotoxicity rating CASOB ([5]; 250 g ai/ha): 30
Pre-emerge herbicidal activity, phytotoxicity rating ECHCG ([6]; 63 g ai/ha): 0
Pre-emerge herbicidal activity, phytotoxicity rating ECHCG ([6]; 250 g ai/ha): 0
Pre-emerge herbicidal activity, phytotoxicity rating ABUTH ([7]; 63 g ai/ha): 0
Pre-emerge herbicidal activity, phytotoxicity rating ABUTH ([7]; 250 g ai/ha): 80
Pre-emerge herbicidal activity, phytotoxicity rating SETVI ([8]; 63 g ai/ha): 0
Pre-emerge herbicidal activity, phytotoxicity rating SETVI ([8]; 250 g ai/ha): 0
Pre-emerge herbicidal activity, phytotoxicity rating DIGSA ([9]; 63 g ai/ha): 20
Pre-emerge herbicidal activity, phytotoxicity rating DIGSA ([9]; 250 g ai/ha): 80
Post-emerge phytotoxicity rating CORN (crop damage) ([10]; Rate 63 g ai/ha): 10
Post-emerge phytotoxicity rating CORN (crop damage) ([10]; Rate 250 g ai/ha): 20
Post-emerge phytotoxicity rating RICE (crop damage) ([11]; Rate 63 g ai/ha): 10
Post-emerge phytotoxicity rating RICE (crop damage) ([11]; Rate 250 g ai/ha): 50
Pre-emerge phytotoxicity rating, crop damage CORN ([12]; 63 g ai/ha): 0
Pre-emerge phytotoxicity rating, crop damage CORN ([12]; 250 g ai/ha): 0
Pre-emerge phytotoxicity rating, crop damage RICE ([13]; 63 g ai/ha): 0
Pre-emerge phytotoxicity rating, crop damage RICE ([13]; 250 g ai/ha): 20
Post-emerge Herbicidal Activity, phytotoxicity rating AMARE ([14]; Rate 63 g ai/ha): 40
Post-emerge Herbicidal Activity, phytotoxicity rating AMARE ([14]; Rate 250 g ai/ha): 90
Post-emerge Herbicidal Activity, phytotoxicity rating IPOHE ([15]; Rate 63 g ai/ha): 20
Post-emerge Herbicidal Activity, phytotoxicity rating IPOHE ([15]; Rate 250 g ai/ha): 40
Post-emerge Herbicidal Activity, phytotoxicity rating SORHA ([16]; Rate 63 g ai/ha): 0
Post-emerge Herbicidal Activity, phytotoxicity rating SORHA ([16]; Rate 250 g ai/ha): 50
Post-emerge Herbicidal Activity, phytotoxicity rating CHEAL ([17]; Rate 63 g ai/ha): 80
Post-emerge Herbicidal Activity, phytotoxicity rating CHEAL ([17]; Rate 250 g ai/ha): 90
Post-emerge Herbicidal Activity, phytotoxicity rating AMBEL ([18]; Rate 63 g ai/ha): 50
Post-emerge Herbicidal Activity, phytotoxicity rating AMBEL ([18]; Rate 250 g ai/ha): 50
Post-emerge Herbicidal Activity, phytotoxicity rating CASOB ([19]; Rate 63 g ai/ha): 0
Post-emerge Herbicidal Activity, phytotoxicity rating CASOB ([19]; Rate 250 g ai/ha): 0
Post-emerge Herbicidal Activity, phytotoxicity rating ECHCG ([20]; Rate 63 g ai/ha): 100
Post-emerge Herbicidal Activity, phytotoxicity rating ECHCG ([20]; Rate 250 g ai/ha): 100
Post-emerge Herbicidal Activity, phytotoxicity rating ABUTH ([21]; Rate 63 g ai/ha): 70
Post-emerge Herbicidal Activity, phytotoxicity rating ABUTH ([21]; Rate 250 g ai/ha): 100
Post-emerge Herbicidal Activity, phytotoxicity rating SETVI ([22]; Rate 63 g ai/ha): 0
Post-emerge Herbicidal Activity, phytotoxicity rating SETVI ([22]; Rate 250 g ai/ha): 50
Post-emerge Herbicidal Activity, phytotoxicity rating DIGSA ([23]; Rate 63 g ai/ha): 95
Post-emerge Herbicidal Activity, phytotoxicity rating DIGSA ([23]; Rate 250 g ai/ha): 100
